Values after ≈ are worked out from the molar mass of the structure shown.
Key:
[1] = tested on: Mycobacterium tuberculosis; test: microbe, parasite or virus in culture; assay type: functional; conditions: H37Rv ATCC 27294, 168 h
Description: Antitubercular activity against Mycobacterium tuberculosis H37Rv ATCC 27294 after 7 days under normoxic condition by microplate Alamar blue assay

Mycobacterium kansasii = test: Antimycobacterial activity against Mycobacterium kansasii ATCC 12478 after 7 days under normoxic condition by microplate Alamar blue assay; assay type: functional; conditions: ATCC 12478, 168 h
[2] = tested on: Mycobacteroides abscessus; test: Antimycobacterial activity against Mycobacterium abscessus ATCC 19977 after 7 days under normoxic condition by microplate Alamar blue assay; assay type: functional; conditions: ATCC 19977, 168 h
Escherichia coli = test: Antibacterial activity against Escherichia coli ATCC 25922 after 16 to 20 hrs; assay type: functional
Candida albicans = test: Antifungal activity against Candida albicans ATCC 90028 after 36 to 48 hrs; assay type: functional
[3] = tested on: Mycobacterium tuberculosis; test: Antitubercular activity against Mycobacterium tuberculosis H37Rv ATCC 27294 treated for 10 days under hypoxic condition followed by 28 hrs of normoxic recovery; assay type: functional
Mycobacteroides chelonae = test: Antimycobacterial activity against Mycobacterium chelonae ATCC 35752 after 7 days under normoxic condition by microplate Alamar blue assay; assay type: functional; conditions: ATCC 35752, 168 h
Staphylococcus aureus = test: Antibacterial activity against Staphylococcus aureus ATCC 29213 after 16 to 20 hrs; assay type: functional
[4] = tested on: Mycolicibacterium smegmatis; test: Antimycobacterial activity against Mycobacterium smegmatis ATCC MC2155 after 7 days under normoxic condition by microplate Alamar blue assay; assay type: functional; conditions: str. MC2 155, 168 h
in vitro = conditions: monkey
Description: Selectivity index, ratio of IC50 for African green monkey Vero cells to MIC90 for Mycobacterium tuberculosis H37Rv ATCC 27294 under normoxic condition

Mycobacterium marinum = test: Antimycobacterial activity against Mycobacterium marinum ATCC 927 after 7 days under normoxic condition by microplate Alamar blue assay; assay type: functional; conditions: ATCC 927, 168 h
Mycobacterium avium = test: Antimycobacterial activity against Mycobacterium avium ATCC 15769 after 7 days under normoxic condition by microplate Alamar blue assay; assay type: functional; conditions: ATCC 15769, 168 h

| Structure (SMILES) | MIC90 [1] [µM] | MIC90 (Mycobacterium kansasii) [µM] | MIC90 [2] [µM] | MIC90 (Escherichia coli) [µM] | MIC90 (Candida albicans) [µM] | MIC90 [3] [µM] | MIC90 (Mycobacteroides chelonae) [µM] | MIC90 (Staphylococcus aureus) [µM] | MIC90 [4] [µM] | selectivity ratio (in vitro; Vero cells) | MIC90 (Mycobacterium marinum) [µM] | MIC90 (Mycobacterium avium) [µM] | selectivity ratio (in vitro; vero) |
| --- | --- | --- | --- | --- | --- | --- | --- | --- | --- | --- | --- | --- | --- |
| CC(C)(C)c1ccc(C(=O)/C=C/c2ccc([N+](=O)[O-])s2)cc1 | 0.22 (≈ 0.0694 µg/mL) | 0.92 (≈ 0.29 µg/mL) | > 10 | > 10 | > 10 | 4.18 (≈ 1.32 µg/mL) | > 10 | > 10 | > 10 | 454 | > 10 | 1.08 (≈ 0.341 µg/mL) | – |
| Cc1ccc(C(=O)/C=C/c2ccc([N+](=O)[O-])s2)cc1 | 1.87 (≈ 0.511 µg/mL) | 1.54 (≈ 0.421 µg/mL) | > 10 | > 10 | > 10 | 2.05 (≈ 0.56 µg/mL) | > 10 | > 10 | > 10 | – | > 10 | 2.3 (≈ 0.629 µg/mL) | – |
| O=C(/C=C/c1ccc([N+](=O)[O-])o1)c1ccc(-c2ccccc2)cc1 | 3.91 (≈ 1.25 µg/mL) | 0.49 (≈ 0.156 µg/mL) | > 10 | > 10 | > 10 | 3.18 (≈ 1.02 µg/mL) | > 10 | > 10 | > 10 | 25 | > 10 | 1.27 (≈ 0.406 µg/mL) | – |
| CN(C)c1ccc(/C=C/C(=O)c2ccc(-c3ccccc3)cc2)cc1 | > 10 | > 10 | > 10 | > 10 | > 10 | > 10 | > 10 | > 10 | > 10 | – | > 10 | > 10 | – |
| NNC(=O)c1ccncc1 [ISONIAZID] | 0.41 (≈ 0.0562 µg/mL) | – | – | – | – | > 256 | – | – | > 10 | – | – | – | – |
| O=C(/C=C/c1ccco1)c1ccc(N2CCCCC2)cc1 | > 10 | > 10 | > 10 | > 10 | > 10 | > 10 | > 10 | > 10 | > 10 | – | > 10 | > 10 | – |
| CC(C)(C)c1ccc(C(=O)/C=C/c2ccco2)cc1 | > 10 | > 10 | > 10 | > 10 | > 10 | > 10 | > 10 | > 10 | > 10 | – | > 10 | > 10 | – |
| C[C@@H]1[C@H](O)[C@@H](C)/C=C/C=C/C=C/C=C/C=C/C=C/C=C/[C@H](O[C@@H]2O[C@H](C)[C@@H](O)[C@H](N)[C@@H]2O)C[C@@H]2O[C@](O)(C[C@@H](O)C[C@@H](O)[C@H](O)CC[C@@H](O)C[C@@H](O)CC(=O)O[C@H]1C)C[C@H](O)[C@H]2C(=O)O [AMPHOTERICIN B] | – | – | – | – | < 0.004 | – | – | – | – | – | – | – | – |
| O=C(/C=C/c1ccc([N+](=O)[O-])s1)c1ccc(-n2ccnc2)cc1 | 0.19 (≈ 0.0618 µg/mL) | 0.56 (≈ 0.182 µg/mL) | 4.7 (≈ 1.53 µg/mL) | > 10 | > 10 | 1.73 (≈ 0.563 µg/mL) | 1.63 (≈ 0.53 µg/mL) | 0.28 (≈ 0.0911 µg/mL) | 4.39 (≈ 1.43 µg/mL) | 225 | > 10 | 2.1 (≈ 0.683 µg/mL) | – |
| O=C(/C=C/c1ccc([N+](=O)[O-])cc1)c1ccc(N2CCCCC2)cc1 | > 10 | > 10 | > 10 | > 10 | > 10 | > 10 | > 10 | > 10 | > 10 | – | > 10 | > 10 | – |
| COc1ccc(/C=C/C(=O)c2ccc(-c3ccccc3)cc2)cc1 | > 10 | > 10 | > 10 | > 10 | > 10 | > 10 | > 10 | 1.18 (≈ 0.371 µg/mL) | > 10 | – | > 10 | > 10 | – |
| COc1ccc(/C=C/C(=O)c2cccc(I)c2)cc1 | 4.9 (≈ 1.78 µg/mL) | 9.4 (≈ 3.42 µg/mL) | > 10 | > 10 | > 10 | > 10 | > 10 | > 10 | > 10 | 20 | > 10 | 9.64 (≈ 3.51 µg/mL) | – |
| O=C(/C=C/c1ccc([N+](=O)[O-])o1)c1ccc(N2CCOCC2)cc1 | 0.81 (≈ 0.266 µg/mL) | – | – | > 10 | > 10 | 9.85 (≈ 3.23 µg/mL) | – | 1.19 (≈ 0.391 µg/mL) | > 10 | 123 | – | – | – |
| Cc1cccc(C(=O)/C=C/c2ccc([N+](=O)[O-])o2)c1 | 1.27 (≈ 0.327 µg/mL) | 0.49 (≈ 0.126 µg/mL) | > 10 | > 10 | > 10 | 4.75 (≈ 1.22 µg/mL) | > 10 | 2.23 (≈ 0.574 µg/mL) | > 10 | 43 | 2.39 (≈ 0.615 µg/mL) | 1.92 (≈ 0.494 µg/mL) | – |
| CC(C)(C)c1ccc(C(=O)/C=C/c2ccc([N+](=O)[O-])o2)cc1 | 0.35 (≈ 0.105 µg/mL) | – | – | > 10 | > 10 | > 10 | – | > 10 | > 10 | 284 | – | – | – |
| O=C(/C=C/c1ccc([N+](=O)[O-])o1)c1ccc(N2CCCCC2)cc1 | 3.42 (≈ 1.12 µg/mL) | – | – | > 10 | > 10 | 10.9 (≈ 3.56 µg/mL) | – | > 10 | > 10 | – | – | – | – |
| O=C(/C=C/c1ccc([N+](=O)[O-])o1)c1ccc(N2CCCC2)cc1 | > 10 | 0.39 (≈ 0.122 µg/mL) | > 10 | > 10 | > 10 | 4.3 (≈ 1.34 µg/mL) | > 10 | > 10 | > 10 | – | > 10 | > 10 | – |
| O=C(/C=C/c1ccc([N+](=O)[O-])o1)c1ccc(C2CCCCC2)cc1 | 0.81 (≈ 0.264 µg/mL) | – | – | > 10 | > 10 | 3.33 (≈ 1.08 µg/mL) | – | > 10 | > 10 | 122 | – | – | – |
| CC1(C)S[C@@H]2[C@H](NC(=O)[C@H](N)c3ccccc3)C(=O)N2[C@H]1C(=O)O [AMPICILLIN] | – | – | – | 1.18 (≈ 0.412 µg/mL) | – | – | – | 0.25 (≈ 0.0874 µg/mL) | – | – | – | – | – |
| CSc1ccc(C(=O)/C=C/c2ccco2)cc1 | > 10 | > 10 | > 10 | > 10 | > 10 | > 10 | > 10 | > 10 | > 10 | – | > 10 | > 10 | – |
| O=C(/C=C/c1ccc([N+](=O)[O-])s1)c1ccc(N2CCOCC2)cc1 | > 10 | 8.27 (≈ 2.85 µg/mL) | > 10 | > 10 | > 10 | > 10 | > 10 | > 10 | > 10 | – | > 10 | > 10 | – |
| O=C(/C=C/c1ccc(Cl)s1)c1ccc(-n2ccnc2)cc1 | 9.29 (≈ 2.92 µg/mL) | 9.17 (≈ 2.89 µg/mL) | > 10 | > 10 | > 10 | 9.75 (≈ 3.07 µg/mL) | > 10 | > 10 | > 10 | – | > 10 | > 10 | – |
| O=C(/C=C/c1cccc([N+](=O)[O-])c1)c1ccc(N2CCCCC2)cc1 | > 10 | > 10 | > 10 | > 10 | > 10 | > 10 | > 10 | > 10 | > 10 | – | > 10 | > 10 | – |
| CC(C)(C)c1ccc(C(=O)/C=C/c2ccc[nH]2)cc1 | > 10 | > 10 | > 10 | > 10 | > 10 | > 10 | > 10 | > 10 | > 10 | – | > 10 | > 10 | – |
| O=C(/C=C/c1ccc([N+](=O)[O-])o1)c1ccc(-n2ccnc2)cc1 | 1.05 (≈ 0.325 µg/mL) | – | – | 3.18 (≈ 0.984 µg/mL) | > 10 | 6.94 (≈ 2.15 µg/mL) | – | 0.34 (≈ 0.105 µg/mL) | > 10 | 94 | – | – | – |
| O=C(/C=C/c1ccc([N+](=O)[O-])o1)c1ccc(N2CCNCC2)cc1 | 0.27 (≈ 0.0884 µg/mL) | – | – | > 10 | > 10 | 9.67 (≈ 3.17 µg/mL) | – | > 10 | > 10 | 359 | – | – | – |
| CO[C@H]1/C=C/O[C@@]2(C)Oc3c(C)c(O)c4c(O)c(c(/C=N/N5CCN(C)CC5)c(O)c4c3C2=O)NC(=O)/C(C)=C\C=C\[C@H](C)[C@H](O)[C@@H](C)[C@@H](O)[C@@H](C)[C@H](OC(C)=O)[C@@H]1C [RIFAMPIN] | 0.05 (≈ 0.0411 µg/mL) | – | – | – | – | 0.19 (≈ 0.156 µg/mL) | – | – | > 10 | – | – | – | 2000 |
| O=C(/C=C/c1ccc([N+](=O)[O-])s1)c1ccc(C2CCCCC2)cc1 | > 10 | 9.26 (≈ 3.16 µg/mL) | > 10 | > 10 | > 10 | 5.75 (≈ 1.96 µg/mL) | > 10 | > 10 | > 10 | – | > 10 | 5.99 (≈ 2.05 µg/mL) | – |
| O=C(/C=C/c1ccc([N+](=O)[O-])o1)c1ccc(Br)cc1 | 2.5 (≈ 0.805 µg/mL) | – | – | > 10 | 4.93 (≈ 1.59 µg/mL) | 6.76 (≈ 2.18 µg/mL) | – | 0.36 (≈ 0.116 µg/mL) | 7.12 (≈ 2.29 µg/mL) | – | – | – | – |

— ChEMBL document CHEMBL4118066, “QSAR-driven design, synthesis and discovery of potent chalcone derivatives with antitubercular activity” (Eur J Med Chem, 2017)
